Measured values reported in publication PMC12198407, “Preclinical and first-in-human of purinostat mesylate, a novel selective HDAC I/IIb inhibitor, in relapsed/refractory multiple myeloma and lymphoma” (Signal Transduction and Targeted Therapy, 2025).
Several values for one entry are separate records, joined by “and”; a condition that tells them apart may be missing. Equal entries are not always repeated. Entries after “also recorded” stand apart in the source; their conditions may differ. Where two headings read alike, the source gives them in different places.

Assays:
HDAC11 = HDAC11 (Homo sapiens, UniProt Q96DB2); test: HDAC enzyme activity in vitro; type: biochemical
[1] = system: RPMI-8226 xenograft (TP53 E285K); test: RPMI-8226 xenograft mouse model, PM+Pd combination; type: in vivo, NOD-SCID mice; settings: PM 5 mg/kg; Dara+Bort+DXM 5+0.1+1; Pd 2.5+1; PM+Pd 5+2.5+1 mg/kg
Experimental: Mice received subcutaneous inoculation with 0.5 × 10^7 MM1S or RPMI-8226 cells, to establish xenograft models. […] When tumors reached 150–250 mm^3, mice were treated with various compounds. PM and panobinostat were administered intravenously three times a week at 5 mg/kg in combination therapy. […] Tumor volume (tumor volume (mm^3) = π/6 × length × width^2) and body weights were measured every two days. At the end, tumor tissues were weighed, and antitumor activity was evaluated by the tumor inhibition rate = (1 − tumor weight of treatment group/tumor weight of vehicle group) × 100%.

[2] = system: class IIb HDAC substrate α-tubulin in SUDHL-6, Daudi, Raji, Ramos, RPMI-8226; test: Cellular acetylation of α-tubulin; type: cell-based, human
Excerpt: The results of these cell experiments were consistent with the in vitro enzyme activity assay results.

HUVEC = test: Proliferation, MTT or Alamar Blue; type: cell-based; settings: Homo sapiens, read-out: IC50, normal HUVEC cells
Raji-luc = test: Luciferase substrate viability assay; type: cell-based, human
[3] = system: human double-hit lymphoma SUDHL-6; test: SUDHL-6 subcutaneous tumor model; type: in vivo, NOD/SCID mice; settings: for median survival time: satellite group
[4] = system: human Burkitt lymphoma Raji; test: Raji subcutaneous tumor model; type: in vivo, NOD/SCID mice
Excerpt: In contrast, both batches of the positive control CODOX group experienced instances of individual mortality during administration.

[5] = Systemic active allergic test; type: in vivo, guinea pigs; settings: 0.204 and 0.612 mg/mL
Experimental: This experiment included a negative control group, a positive control group, a blank formulation group of injectable Purinostat Mesylate, and low and high dose groups of injectable Purinostat Mesylate, with 6 British guinea pigs in each group, evenly divided by sex. During the sensitization phase, the low and high dose groups received intravenous injections of 0.204 mg/mL and 0.612 mg/mL of injectable Purinostat Mesylate (1 and 3 times the maximum intended clinical concentration, respectively) at a volume of 0.5 mL per guinea pig. The blank formulation group received intravenous injections of the excipient in the same volume as the high dose group. The negative control group received an equal volume of 0.9% sodium chloride injection, while the positive control group received an intraperitoneal injection of 4 mg of ovalbumin solution per guinea pig. Sensitization was performed once every other day for a total of 3 consecutive sensitizations. On days 14 and 21 after the last sensitization, each group received an intravenous injection of 2 times the sensitizing dose to provoke an allergic response. Reactions and mortality were observed 30 minutes after the provocation injection.

[6] = Bone marrow micronucleus test; type: in vivo, NIH mice; settings: 20, 40, 60, 80 mg/kg i.v. daily for 3 days
Experimental: In this experiment, 90 SPF-grade NIH mice (half male and half female) were randomly divided into 7 groups: a negative control group (0.9% sodium chloride injection, intravenous injection, 10 mL/kg), an excipient control group (blank formulation, intravenous injection, 10 mL/kg), a positive control group (cyclophosphamide 40 mg/kg, intraperitoneal injection, 10 mL/kg), and four groups for intravenous injection of Purinostat Mesylate at low, medium, high, and highest doses (20, 40, 60, and 80 mg/kg, intravenous injection, 10 mL/kg). The negative control and positive control groups each consisted of 20 mice, while the other groups each consisted of 10 mice, with an equal number of males and females. Mice in each group were administered the specified doses once daily for 3 consecutive days, while the positive control group received only a single dose. Twenty to twenty-four hours after the last administration, all mice in each group were euthanized, and femoral bone marrow smears were prepared. The smears were stained with Giemsa and observed under an oil immersion microscope. For each mouse, 4000 polychromatic erythrocytes (PCEs) were counted to calculate the micronucleus incidence (‰), while 500 bone marrow erythrocytes were counted to determine the ratio of polychromatic erythrocytes to total erythrocytes.

[7] = Pharmacokinetics in plasma and tumor, HCT116 tumor-bearing mice; type: in vivo, nude mice
Experimental: The mean residence time (MRT) was 0.51 ± 0.06 hours in plasma and 39.48 ± 4.74 hours in tumor.

[8] = Plasma level in wild-type mice; type: in vivo; settings: single i.v. 5 mg/kg, listed as Purinostat Mesylate
Experimental: The mean residence times (MRT) were 6.00 ± 1.00 h, 24.8 ± 1.03 h, and 23.4 ± 3.59 h, respectively. […] However, in Ighmyc mice, the plasma drug concentration after the same duration was 7.11 ± 3.15 ng/mL. […] The pharmacokinetic characteristics support the notion that spaced dosing of the drug can still maintain favorable pharmacodynamic outcomes.

CYP2B6 = target: T1, CYP2B6 (Homo sapiens, UniProt P20813); test: CYP inhibition, human liver microsomes; type: in vitro ADME
T1 construct: human liver microsomal cytochrome P450 isoenzymes; from tissue; host or cells: human liver microsomes

CYP2C8 = target: T2, CYP2C8 (Homo sapiens, UniProt P10632); test: CYP inhibition, human liver microsomes; type: in vitro ADME
T2 construct: human liver microsomal cytochrome P450 isoenzymes; from tissue; host or cells: human liver microsomes
T2 sequence (P10632 whole entry): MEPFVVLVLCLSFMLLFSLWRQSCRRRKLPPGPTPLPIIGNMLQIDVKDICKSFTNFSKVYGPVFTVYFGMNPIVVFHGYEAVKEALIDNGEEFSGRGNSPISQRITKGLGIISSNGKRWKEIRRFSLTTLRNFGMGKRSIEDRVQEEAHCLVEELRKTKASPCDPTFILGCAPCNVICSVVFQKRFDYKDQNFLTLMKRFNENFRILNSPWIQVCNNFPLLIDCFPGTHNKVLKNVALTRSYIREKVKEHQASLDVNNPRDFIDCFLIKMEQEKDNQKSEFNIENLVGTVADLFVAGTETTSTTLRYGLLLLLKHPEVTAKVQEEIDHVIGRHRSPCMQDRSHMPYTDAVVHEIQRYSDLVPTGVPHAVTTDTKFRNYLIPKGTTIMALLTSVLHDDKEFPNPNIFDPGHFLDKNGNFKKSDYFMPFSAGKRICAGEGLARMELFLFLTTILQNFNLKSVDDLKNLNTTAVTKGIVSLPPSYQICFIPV

Chain of HDAC11 (Q96DB2 whole entry): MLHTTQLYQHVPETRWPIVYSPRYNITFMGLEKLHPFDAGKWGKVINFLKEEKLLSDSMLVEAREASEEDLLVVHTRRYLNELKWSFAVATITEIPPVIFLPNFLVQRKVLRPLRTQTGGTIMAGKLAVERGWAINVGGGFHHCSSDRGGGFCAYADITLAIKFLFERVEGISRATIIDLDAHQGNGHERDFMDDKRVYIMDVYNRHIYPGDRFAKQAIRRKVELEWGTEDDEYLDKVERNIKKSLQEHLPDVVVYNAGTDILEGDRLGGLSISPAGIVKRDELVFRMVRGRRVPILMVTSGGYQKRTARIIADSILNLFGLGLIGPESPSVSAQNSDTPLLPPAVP
T1 sequence (P20813 whole entry): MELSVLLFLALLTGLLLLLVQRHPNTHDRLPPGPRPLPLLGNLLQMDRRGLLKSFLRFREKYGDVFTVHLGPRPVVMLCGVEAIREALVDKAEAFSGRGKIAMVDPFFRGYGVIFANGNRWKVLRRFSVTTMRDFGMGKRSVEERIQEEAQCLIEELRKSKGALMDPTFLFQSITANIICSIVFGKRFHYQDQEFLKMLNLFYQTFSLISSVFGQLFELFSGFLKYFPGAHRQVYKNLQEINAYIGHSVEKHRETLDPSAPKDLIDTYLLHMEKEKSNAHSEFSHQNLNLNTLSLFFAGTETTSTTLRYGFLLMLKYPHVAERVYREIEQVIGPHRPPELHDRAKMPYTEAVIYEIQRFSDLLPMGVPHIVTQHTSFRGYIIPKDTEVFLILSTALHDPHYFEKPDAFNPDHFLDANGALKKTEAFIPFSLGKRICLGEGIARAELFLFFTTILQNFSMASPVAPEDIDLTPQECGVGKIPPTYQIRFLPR
Excerpt for in vivo: According to the "Guidelines for the Clinical Trial of Antineoplastic Drugs," for cytotoxic agents, the maximum recommended starting dose (MRSD) can be determined as one-tenth of the maximum tolerated dose (MTD) in rodent studies or one-sixth of the MTD in non-rodent species, expressed in mg/m². For some non-cytotoxic antineoplastic agents, due to their relatively lower toxicity, the starting dose for single administration in Phase I clinical trials can be calculated using one-fifth of the No Observed Adverse Effect Level (NOAEL) from non-rodent studies, or higher.
The Pharmacological Active Dose (PAD) based on mice is used to predict the minimum dose that may produce the expected pharmacological effect in humans.

CN(Cc1nc2c(N3CCOCC3)nc(-c3ccc(N)cc3)nc2n1C)c1ncc(C(=O)NO)cn1.CS(=O)(=O)O [PM, 2-(((2-(4-Aminophenyl)-9-methyl-6-(4-morpholinyl)-9H-purine-8-yl)methyl)methylamino)-N-hydroxy-5-pyrimidine-carboxamide Mesylate]
IC50 (HDAC11): 3.35 µM | tumor inhibition rate [1]: 86.05% | concentration inducing increased acetylation of α-tubulin [2]: 3 to 10 nM | IC50 (HUVEC): 0.0689 µM | time until effect detectable (Raji-luc): 36 h | T/C ([3]; 2.5 mg/kg): 47.88±9.41% | tumor inhibition rate ([3]; 2.5 mg/kg i.v. three times a week, mean of two batches): 58.99±2.32% | T/C ([3]; 5 mg/kg): 34.37±3.79% | tumor inhibition rate ([3]; 5 mg/kg): 69.35±3.47% | T/C ([3]; 10 mg/kg): 29.62±1.77% | tumor inhibition rate ([3]; 10 mg/kg): 75.81±8.28% | T/C ([3]; 20 mg/kg): 21.28±6.72% | tumor inhibition rate ([3]; 20 mg/kg): 81.40±5.38% | median survival time ([3]; 10 mg/kg, death = tumor 3000 mm³): 30 days | median survival time ([3]; 20 mg/kg): 30 days | T/C ([4]; 1.25 mg/kg): 48.13±5.13% | tumor inhibition rate ([4]; 1.25 mg/kg, mean of two batches): 52.03 ± 3.36% | T/C ([4]; 2.5 mg/kg): 31.86±8.56% | tumor inhibition rate ([4]; 2.5 mg/kg): 66.15 ± 12.49% | T/C ([4]; 5 mg/kg): 18.11±7.50% | tumor inhibition rate ([4]; 5 mg/kg): 81.65 ± 8.67% | T/C ([4]; 10 mg/kg): 7.75±5.02% | tumor inhibition rate ([4]; 10 mg/kg): 89.98 ± 8.01% | median survival time ([4]; satellite group, 10 mg/kg): 39 days | systemic active allergic test outcome [5]: negative | bone marrow micronucleus test result [6]: negative | tumor AUC(0-96h) ([7]; multiple i.v. 10 mg/kg): 9068 ± 213 µg·h/L | Cmax ([7]; nude, mouse, plasma, iv, 10 mg/kg, single i.v. 10 mg/kg, read-out: Cmax in plasma): 442 ± 67.2 ng/mL | MRT ([7]; nude, mouse, plasma, iv, 10 mg/kg, single i.v. 10 mg/kg, read-out: MRT in plasma): 0.51 ± 0.06 h | half-life ([7]; nude, mouse, plasma, iv, 10 mg/kg, single i.v. 10 mg/kg, read-out: elimination half-life (T1/2) in plasma (converted)): 1.21 h | AUC(0-t) ([7]; nude, mouse, plasma, iv, single i.v. 10 mg/kg, read-out: plasma AUC(0-8h)): 174 ± 25.2 ng·h/mL | Kp ([7]; nude, mouse, tumor and plasma, intravenous, 10 mg/kg, single dose, read-out: tumor AUC0-t / plasma AUC0-t ratio): 74.4 | concentration at 96 h ([7]; nude, mouse, tumor, intravenous, 10 mg/kg, single dose, read-out: drug concentration in tumor tissue after 96 hours): 69 ng/mL and ~140 nM | Cmax ([7]; nude, mouse, tumor, iv, 10 mg/kg, multiple i.v. 10 mg/kg, read-out: Cmax in tumor): 283 ± 64.8 ng/mL | MRT ([7]; nude, mouse, tumor, iv, 10 mg/kg, multiple i.v. 10 mg/kg, read-out: MRT in tumor): 34.7 ± 1.86 h | half-life ([7]; nude, mouse, tumor, iv, 10 mg/kg, multiple i.v. 10 mg/kg, read-out: elimination half-life (T1/2) in tumor (converted)): 68.7 ± 54.5 h | Cmax ([7]; nude, mouse, tumor, iv, 10 mg/kg, single i.v. 10 mg/kg, read-out: Cmax in tumor): 1040 ± 167 ng/mL | MRT ([7]; nude, mouse, tumor, iv, 10 mg/kg, single i.v. 10 mg/kg, read-out: MRT in tumor): 39.5 ± 4.74 h | half-life ([7]; nude, mouse, tumor, iv, 10 mg/kg, single i.v. 10 mg/kg, read-out: elimination half-life (T1/2) in tumor (converted)): 45.3 h | tumor AUC(0-96h) ([7]; single i.v. 10 mg/kg): 12922 ± 498 µg/Lh | plasma drug concentration at 24 hours [8]: no drug concentration was detected in the plasma at 24 hours; also recorded: no drug concentration was detectable in plasma after 24 hours; also recorded: undetectable | IC50 (CYP2B6): > 10 µM | IC50 (CYP2C8): > 10 µM | NOAEL (in vivo; beagle, dog): < 0.3 mg/kg | NOAEL (in vivo; rat): < 3 mg/kg
